The target of assay [1] is T1, TBK1 (Homo sapiens, UniProt Q9UHD2).
T1 sequence (Q9UHD2 1-729): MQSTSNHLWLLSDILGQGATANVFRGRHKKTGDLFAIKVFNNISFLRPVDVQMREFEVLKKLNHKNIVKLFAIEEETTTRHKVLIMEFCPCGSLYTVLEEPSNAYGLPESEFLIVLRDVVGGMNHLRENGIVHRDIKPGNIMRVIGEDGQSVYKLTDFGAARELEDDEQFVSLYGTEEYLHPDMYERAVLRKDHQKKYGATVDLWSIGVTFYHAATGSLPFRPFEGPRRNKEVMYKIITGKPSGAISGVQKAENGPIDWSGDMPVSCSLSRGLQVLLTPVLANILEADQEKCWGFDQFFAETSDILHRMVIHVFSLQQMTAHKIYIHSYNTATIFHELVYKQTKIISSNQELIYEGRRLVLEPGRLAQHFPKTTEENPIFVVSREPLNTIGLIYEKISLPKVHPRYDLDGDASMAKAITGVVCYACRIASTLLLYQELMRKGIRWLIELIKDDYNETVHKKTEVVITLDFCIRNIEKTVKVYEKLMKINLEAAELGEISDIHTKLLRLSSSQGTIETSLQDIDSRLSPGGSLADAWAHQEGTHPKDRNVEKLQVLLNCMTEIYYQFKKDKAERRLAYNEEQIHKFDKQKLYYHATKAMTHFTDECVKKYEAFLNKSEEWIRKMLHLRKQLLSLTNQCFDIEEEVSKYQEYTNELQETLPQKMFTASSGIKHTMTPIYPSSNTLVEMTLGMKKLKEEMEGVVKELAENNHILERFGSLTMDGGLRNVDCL
The assay can be described thus: TBK Biochemical Assay. The settings on record: read-out: TBK1 IC50. An outline of the steps: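 Caliper LabChip mobility-shift readout of substrate and product after 90 min of TBK1 reaction at 25° C and stop-buffer addition. Compounds tested in 1:4 serial dilution over 10 points from 30 uM final at 1% DMSO; staurosporine 10 uM final defines full inhibition.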

In assay [2] the target is T2, IKKε (Homo sapiens, UniProt Q14164).
T2 sequence (Q14164 1-716): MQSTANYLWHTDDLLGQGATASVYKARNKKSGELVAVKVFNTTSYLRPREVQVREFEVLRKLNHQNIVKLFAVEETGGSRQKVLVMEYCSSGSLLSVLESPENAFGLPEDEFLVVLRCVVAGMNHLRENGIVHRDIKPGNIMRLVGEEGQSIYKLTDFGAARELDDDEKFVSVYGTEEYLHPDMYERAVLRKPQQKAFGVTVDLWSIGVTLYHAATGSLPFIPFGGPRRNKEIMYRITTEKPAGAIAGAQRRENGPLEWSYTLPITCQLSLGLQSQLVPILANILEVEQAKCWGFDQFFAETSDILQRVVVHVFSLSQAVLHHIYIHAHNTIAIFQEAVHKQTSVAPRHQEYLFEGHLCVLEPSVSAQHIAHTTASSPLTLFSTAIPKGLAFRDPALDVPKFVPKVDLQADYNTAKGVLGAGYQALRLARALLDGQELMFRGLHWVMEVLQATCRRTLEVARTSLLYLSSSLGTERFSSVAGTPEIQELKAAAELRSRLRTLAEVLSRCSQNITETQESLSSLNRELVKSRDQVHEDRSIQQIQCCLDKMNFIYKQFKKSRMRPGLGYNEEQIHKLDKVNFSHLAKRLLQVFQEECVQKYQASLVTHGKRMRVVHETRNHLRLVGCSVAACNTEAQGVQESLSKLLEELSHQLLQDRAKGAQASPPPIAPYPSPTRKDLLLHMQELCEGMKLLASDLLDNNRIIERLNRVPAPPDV
The assay is described as follows: IKKe Biochemical Assay. The settings on record: read-out: IKKε IC50. In outline: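 Activity was measured as mobility-shift separation of phosphorylated from unphosphorylated substrate on a LabChip EZ Reader. Compound was titrated from 30 uM final in 10 points, 1:4 steps, with 1% DMSO, and enzyme plus substrate reacted 90 min at 25° C before stop buffer. Control wells held 10 uM staurosporine.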

Assay [3] relates to phosphorylation of the IRF-3 protein in MDA-MB-468 cells. The assay can be described thus: pIRF3 immunocytochemistry cell based assay. The settings on record: Homo sapiens. An outline of the steps: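 After 2 h stimulation with Poly(I:C) (10 ug/ml), following 1 h compound pre-treatment (10-point, 3-fold dilution, top 10 uM), MDA-MB-468 cells were fixed and stained with anti-pIRF3 antibody. pIRF3 fluorescence was normalized to PI staining or cell count on an Acumen cytometer. IC50 curves were derived from this.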

Setting [4] is: MDA-MB-468 cells, Poly(I:C) stimulation, read-out: pIRF3 IC50.
[5] abbreviates: MDA-MB-468, read-out: pIRF3 IC50.

We go through 16 molecules from US10428080B2, “TBK/IKK inhibitor compounds and uses thereof” (Merck Patent GmbH, priority 2015, dated 2019).

pIC50: −log10 of the molar value. Where a name gives a salt, the structure may show the parent alone. Read-outs that look alike come from different tables or passages of the source. A value given as a limit tells only on which side of the number the result lay.

Regarding `COc1cc(C(=O)N(C)CCO)cnc1-c1cc2nccc(-c3ccc(OC4CCOCC4)c(C#N)c3)c2o1` [Compound 328, 6-[7-[3-cyano-4-(oxan-4-yloxy)phenyl]furo[3,2-b]pyridin-2-yl]-N-(2-hydroxyethyl)-5-methoxy-N-methylpyridine-3-carboxamide], the pIC50 in assay [1], in assay [2] and in assay [3] (setting [4]) was above 7.00 in each case.
Turning to `COc1cc(C(=O)N(C)C)cnc1-c1cc2ncc(F)c(-c3ccc(NC4CCOCC4)c(C#N)c3)c2o1` [Compound 329, 6-(7-[3-cyano-4-[(oxan-4-yl)amino]phenyl]-6-fluorofuro[3,2-b]pyridin-2-yl)-5-methoxy-N,N-dimethylpyridine-3-carboxamide], the negative-log IC50 (pIC50) (in general, the IC50 on a negative log10 scale, so that one unit is a factor of ten) in assay [1] was above 7.00; in assay [2] it was 6.00 to 7.00; in assay [3] (setting [4]), 6.00 to 7.00.
In the case of `COc1cc(C(=O)N(C)CCO)cnc1-c1cc2ncc(F)c(-c3ccc(OC4CCOCC4)c(C#N)c3)c2o1` [Compound 334, 6-[7-[3-cyano-4-(oxan-4-yloxy)phenyl]-6-fluorofuro[3,2-b]pyridin-2-yl]-N-(2-hydroxyethyl)-5-methoxy-N-methylpyridine-3-carboxamide], the negative-log IC50 (pIC50) in assay [1] is above 7.00; in assay [2], above 7.00; in assay [3] (setting [4]), 6.00 to 7.00.
As to `COc1cc(C(=O)N(C)C)cnc1-c1cc2ncc(OC)c(-c3ccc(OC4CCOCC4)c(C#N)n3)c2o1` [Compound 338, 6-[7-[6-cyano-5-(oxan-4-yloxy)pyridin-2-yl]-6-methoxyfuro[3,2-b]pyridin-2-yl]-5-methoxy-N,N-dimethylpyridine-3-carboxamide hydrochloride], the pIC50 in assay [1] is 6.00 to 7.00; in assay [2], 6.00 to 7.00; in assay [3] (setting [4]), 5.30 to 6.00.
On to `COc1cc(C(=O)NC2CC(CN(C)C)C2)ccc1-c1cc2nccc(-c3ccc(OC4CCOCC4)c(C#N)c3)c2o1` (stereo not drawn) [Compound 344, 4-[7-[3-cyano-4-(oxan-4-yloxy)phenyl]furo[3,2-b]pyridin-2-yl]-N-[3-[(dimethylamino)methyl]cyclobutyl]-3-methoxybenzamide], for which the values for the negative logarithm of the IC50 (pIC50) in assay [1], in assay [2] and in assay [3] (setting [4]) were above 7.00, above 7.00 and 6.00 to 7.00, respectively.
`COc1cc(C(=O)NC2(CO)CCN(C)C2)ccc1-c1cc2nccc(-c3ccc(OC4CCOCC4)c(C#N)c3)c2o1` (stereo not drawn) [Compound 345, 4-[7-[3-cyano-4-(oxan-4-yloxy)phenyl]furo[3,2-b]pyridin-2-yl]-N-[3-(hydroxymethyl)-1-methylpyrrolidin-3-yl]-3-methoxybenzamide]: the negative-log IC50 (pIC50) in assay [1] was above 7.00; in assay [2], above 7.00; in assay [3] (setting [4]), 6.00 to 7.00.
Take `COc1cc(C(=O)N[C@H]2COC[C@@H]2N(C)C)ccc1-c1cc2nccc(-c3ccc(OC4CCOCC4)c(C#N)c3)c2o1` [Compound 346, 4-[7-[3-cyano-4-(oxan-4-yloxy)phenyl]furo[3,2-b]pyridin-2-yl]-N-[(3R,4R)-4-(dimethylamino)oxolan-3-yl]-3-methoxy benzamide]: the negative logarithm of the IC50 (pIC50) in assay [1] was above 7.00; in assay [2], above 7.00; in assay [3] (setting [5]), 6.00 to 7.00.
Regarding `COc1cc(C(=O)NC2CCN(C)CC2O)ccc1-c1cc2nccc(-c3ccc(OC4CCOCC4)c(C#N)c3)c2o1` (stereo not drawn) [Compound 347, 4-[7-[3-cyano-4-(oxan-4-yloxy)phenyl]furo[3,2-b]pyridin-2-yl]-N-(3-hydroxy-1-methylpiperidin-4-yl)-3-methoxybenzamide], the figures for the pIC50 in assay [1], in assay [2] and in assay [3] (setting [4]) were above 7.00, above 7.00 and 6.00 to 7.00, respectively.
With `COc1cc(C(=O)NC2CN(C)CCC2O)ccc1-c1cc2nccc(-c3ccc(OC4CCOCC4)c(C#N)c3)c2o1` (stereo not drawn) [Compound 348, 4-[7-[3-cyano-4-(oxan-4-yloxy)phenyl]furo[3,2-b]pyridin-2-yl]-N-(4-hydroxy-1-methylpiperidin-3-yl)-3-methoxybenzamide], the pIC50 was above 7.00 in assay [1], above 7.00 in assay [2] and 6.00 to 7.00 in assay [3] (setting [4]).
For the molecule `COc1cc(C(=O)NC2(C#N)CCN(C)C2)ccc1-c1cc2nccc(-c3ccc(OC4CCOCC4)c(C#N)c3)c2o1` (stereo not drawn) [Compound 349, N-(3-cyano-1-methylpyrrolidin-3-yl)-4-[7-[3-cyano-4-(oxan-4-yloxy)phenyl]furo[3,2-b]pyridin-2-yl]-3-methoxybenzamide], the pIC50 in assay [1] is above 7.00; in assay [2], above 7.00; in assay [3] (setting [4]), 6.00 to 7.00.
Regarding `COc1cc(C(=O)N(C)C)cnc1-c1cc2ncc(F)c(-c3ccc(NC4CCOCC4)c(C#N)n3)c2o1` [Compound 352, 6-(7-[6-cyano-5-[(oxan-4-yl)amino]pyridin-2-yl]-6-fluorofuro[3,2-b]pyridin-2-yl)-5-methoxy-N,N-dimethylpyridine-3-carboxamide], the pIC50 in assay [1] is 6.00 to 7.00; in assay [2], 5.30 to 6.00; in assay [3] (setting [4]), 5.30 to 6.00.
Consider `COc1cc(C(=O)NC2CN(CC(C)C)C2)ccc1-c1cc2nccc(-c3ccc(OC4CCOCC4)c(C#N)c3)c2o1` [Compound 355, 4-[7-[3-cyano-4-(oxan-4-yloxy)phenyl]furo[3,2-b]pyridin-2-yl]-3-methoxy-N-[1-(2-methylpropyl)azetidin-3-yl]benzamide], for which the pIC50 in assay [1] is above 7.00; in assay [2], above 7.00; in assay [3] (setting [5]), 6.00 to 7.00.
`COc1cc(C(=O)N(C)CCO)cnc1-c1cc2nccc(-c3ccc(NC4CCOCC4)c(C#N)n3)c2o1` [Compound 356, 6-(7-[6-cyano-5-[(oxan-4-yl)amino]pyridin-2-yl]furo[3,2-b]pyridin-2-yl)-N-(2-hydroxyethyl)-5-methoxy-N-methylpyridine-3-carboxamide]: the pIC50 is above 7.00 in assay [1], above 7.00 in assay [2] and 6.00 to 7.00 in assay [3] (setting [4]).
For `COc1cc(C(=O)NC2CN(C(C)C)C2)ccc1-c1cc2nccc(-c3ccc(OC4CCOCC4)c(C#N)c3)c2o1` [Compound 364, 4-(7-(3-cyano-4-(tetrahydro-2H-pyran-4-yloxy)phenyl)furo[3,2-b]pyridin-2-yl)-N-(1-isopropylazetidin-3-yl)-3-methoxybenzamide], the pIC50 in assay [1] was above 7.00; in assay [2], above 7.00; in assay [3] (setting [4]) it was 6.00 to 7.00.
With `COc1cc(C(=O)NC2(C)CCCN(C)C2)ccc1-c1cc2nccc(-c3ccc(OC4CCOCC4)c(C#N)c3)c2o1` (stereo not drawn) [Compound 367, 4-[7-[3-cyano-4-(oxan-4-yloxy)phenyl]furo[3,2-b]pyridin-2-yl]-N-(1,3-dimethylpiperidin-3-yl)-3-methoxybenzamide], the pIC50 in assay [1], in assay [2] and in assay [3] (setting [4]) was above 7.00 throughout.
Take `COc1cc(C(=O)NC2(CN(C)C)CCC2)ccc1-c1cc2nccc(-c3ccc(OC4CCOCC4)c(C#N)c3)c2o1` [Compound 368, 4-[7-[3-cyano-4-(oxan-4-yloxy)phenyl]furo[3,2-b]pyridin-2-yl]-N-[1-[(dimethylamino)methyl]cyclobutyl]-3-methoxybenzamide]: the negative-log IC50 (pIC50) was above 7.00 in assay [1], above 7.00 in assay [2] and 6.00 to 7.00 in assay [3] (setting [4]).
